In paper PMC10017155 (Aging and Disease, 2023):
Entries after “also recorded” stand apart in the source; their conditions may differ. Peptide text beside a SMILES is read from it.

What was measured:
C. elegans CL2120 [1] = experiment: Amyloid load by X-34 staining in C. elegans CL2120; format: in vivo
Description: (§1) C. elegans CL2120 (dvIs14 [(pCL12) unc-54::beta 1-42 +(pCL26) mtl-2::GFP]) and C. elegans CL2122 (dvIs15 [(pPD30.38) unc-54(vector) + (pCL26) mtl-2::GFP]) strains were obtained from the Caenorhabditis Genetics Center. The worms were handled according to standard methods without FUDR [18]. E. coli OP50 bacteria were grown overnight in Luria-Bertani broth and 50µl were spread atop NGM or NGMZn plates. NGMZn has 20μM ZnSO4. Seeded plates were incubated at 30°C for ~16 hours and then for 1-2 hours at 15 or 25°C before worms were transferred. Lifespan and paralysis experiments (see below) were performed at 25°C for enhanced expression of Aβ. This temperature is standard when studying the effects of Aβ on C. elegans CL2120 strain [19].
(§2) Nematodes were purified from unwanted microflora by the alkaline hypochlorite method, grown to the L4 stage at 15°C on NGM plates with bacterial lawn. […] Further, all contents were transferred to Petri plates with NGM or NGMZn with OP50 and placed in a temperature-controlled incubator at 25°C. Next day, worms were transferred onto similar media with a bacterial substrate and the lifespan was determined at 25°C (Supplementary Tables 3, 4).
Post-hoc analysis was performed with the Tukey test.
Figure 2.

C. elegans CL2122 = experiment: Lifespan analysis, C. elegans CL2122 (transgenic control); format: in vivo; conditions: for Increase/decrease in lifespan: vs control of same repeat
Description: as §1, §2
(§3) Lifespans were monitored at 25°C as described previously. All experiments were repeated at least three times and ≈130 worms were used for each experiment. Details regarding repeated experiments and amounts of animals used for experiments are summarized in Supplementary Tables 3, 4. In all cases, stage L4 worms were used at t = 0 for lifespan analyses and worms were transferred every other day to new agar plates. […] Escaped animals or animals with internal hatching were not included in lifespan calculation. Data was analyzed and Boltzmann sigmoid survival curves generated using the SciDAVis statistical analysis software package. Mean lifespans were compared in Microsoft Excel using the Student t test, applying one-tailed distribution and two-sample equal variance. All lifespan plots represent the composites of all independent experiments tabulated in Supplementary Tables 3, 4. Mean percentage change ±SD of lifespan after treatment, relative to untreated control are indicated in each graph in the same color as the curve.

H6R-Aβ16 = experiment: NMR titration, H6R-Aβ16 dimer with HAEE and Zn2+; format: binding, human; conditions: 1H NMR, H6R-Aβ16 1.6 mM, pH 6.8, 0.5 equivalent ZnCl2, titration by HAEE; V12 methyl signal at 0.2 ppm
Description: Peptides Aβ16, H6R-Aβ16 and isoD7-Aβ16 at the concentration of 0.2 - 8mM were dissolved in 10-20 mM bis-Tris-d19 (2,2-Bis(hydroxymethyl)-2,2′,2"-nitrilotrie-thanol-d19 with 98% ^2D enrichment) buffer solution (pH 6.8). Sodium salt of 3-(trimethylsilyl) propionic-2,2,3,3-d4 acid (DSS) at a concentration of 10-20 μM was added as the standard. NMR spectra were measured at 278 K in 90% H2O/10% D2O with Bruker AVANCE 600 MHz spectrometer equipped with triple resonance (^1H, ^13C and ^15N) pulsed field z gradient probe. 1D NMR spectra were processed and analyzed using the Mnova software (Mestrelab Research, Spain). In order to monitor peptide-peptide interactions NMR titration experiments were carried out. […] 1D spectra were recorded for each titration point.
Figure 1. Interaction of HAEE with beta-amyloid. (A) A model for the contribution of isoD7-Aβ to AD pathology, and the possible ways of preventing its deleterious effects. Aβ spontaneously converts into isoD7-Aβ, which is accumulated over age, likely due to reduced Aβ clearance. Isomerized Aβ promotes AD pathology, potentially via formation of Zn-bound complexes serving as the seeds for a generation of neurotoxic oligomers. […] The amount of dimeric form is determined by the intensity of its characteristic signal at 0.2 ppm. […]

C. elegans CL2120 [2] = experiment: Lifespan analysis, C. elegans CL2120; format: in vivo; conditions: for Mean survival: Aβ42 or isoD7-Aβ42 40 μM, HAEE 4 mM; for Increase/decrease in lifespan: vs control of same repeat
Description: as §1, §2, §3

transgenic mice = conditions: cited from earlier work
Source text: The development of AD comprises a cascade of pathogenic processes in brain tissue. Some of the major elements of this cascade are the aggregation of beta-amyloid (Aβ) with the formation of neurotoxic oligomers, hyperphosphorylation of tau, and neuroinflammation. […] In the sporadic form of AD, accounting for 95% of disease cases, the molecular triggers for the pathological cascade remain unknown. […] We hypothesized that the contribution of isoD7-Aβ to the development of AD is based on the formation of zinc-bound complexes that promote pathological aggregation of Aβ (Fig. 1A). […] Interaction of HAEE with beta-amyloid. (A) A model for the contribution of isoD7-Aβ to AD pathology, and the possible ways of preventing its deleterious effects. Aβ spontaneously converts into isoD7-Aβ, which is accumulated over age, likely due to reduced Aβ clearance. Isomerized Aβ promotes AD pathology, potentially via formation of Zn-bound complexes serving as the seeds for a generation of neurotoxic oligomers. Treatment with anti-isoAβ antibodies is a promising therapeutic strategy already showing effectiveness in AD model mice ^9.

[3] = HAEE 4 mM + isoD7-Aβ42 40 µM, NGMZn, X-34
[4] = CL2122, NGM (no Zn), replicate 1
[5] = CL2122, NGM (no Zn), replicate 2
[6] = CL2122, NGM (no Zn), replicate 3
[7] = CL2120, NGM (no Zn), replicate 1
[8] = CL2120, NGM (no Zn), replicate 2
[9] = CL2120, NGM (no Zn), replicate 3

With `CC(=O)N[C@@H](Cc1c[nH]cn1)C(=O)N[C@@H](C)C(=O)N[C@@H](CCC(=O)O)C(=O)N[C@@H](CCC(=O)O)C(N)=O` [HAEE, Ac-HAEE-NH2] (Ac-HAEE-NH2) the “Effect of HAEE on isoD7-Aβ42/Zn2+-induced amyloidosis” value (C. elegans CL2120 [1]; [3]) was “completely negated; also recorded: abrogates this pathological process; also recorded: fails to induce amyloidosis”, the “Number of plaques and plaque area” value (C. elegans CL2120 [1]; [3]) was “reduced back to the untreated group values” and the “Effect on endogenous amyloidosis in untreated transgenic C. elegans” value (C. elegans CL2120 [1]; HAEE alone) was “did not affect the endogenous amyloidosis”. The “Effect of HAEE itself on lifespan” value (C. elegans CL2122; CL2122, HAEE 4 mM) was “no effect”, the Mean survival (C. elegans CL2122; CL2122, NGM (no Zn), Aβ42 or isoD7-Aβ42 40 μM, HAEE 4 mM, 25°C, mean ± SD of 3 experiments) was 9.07 ± 0.25 days and the 50% survival (C. elegans CL2122; [4]) was 8.8 days. For the same compound, the 50% survival (C. elegans CL2122; [5]) was 9.3 days, the 50% survival (C. elegans CL2122; [6]) was 9.1 days and the “Mean increase/decrease in lifespan” value (C. elegans CL2122; CL2122, NGM (no Zn), vs control NGM, mean ± SD of 3 experiments) was 0.03±1.89%. It also gave an Increase/decrease in lifespan (C. elegans CL2122; [4]) of 1.15%, an Increase/decrease in lifespan (C. elegans CL2122; [5]) of 1.09% and an Increase/decrease in lifespan (C. elegans CL2122; [6]) of -2.15%. The “Effect on lifespan” value (C. elegans CL2122; CL2122, NGM, without Zn2+, 25°C) was “do not affect”, the 50% survival (C. elegans CL2122; CL2122, NGMZn, replicate 1) was 8.8 days and the 50% survival (C. elegans CL2122; CL2122, NGMZn, replicate 2) was 9.1 days. For the same compound, the 50% survival (C. elegans CL2122; CL2122, NGMZn, replicate 3) was 8.9 days, the “Mean increase/decrease in lifespan” value (C. elegans CL2122; CL2122, NGMZn, vs control NGMZn, mean ± SD of 3 experiments) was -1.05 ±2.87% and the Increase/decrease in lifespan (C. elegans CL2122; CL2122, NGMZn, replicate 1) was 1.15%. For the same compound, the Increase/decrease in lifespan (C. elegans CL2122; CL2122, NGMZn, replicate 2) was 0%, the Increase/decrease in lifespan (C. elegans CL2122; CL2122, NGMZn, replicate 3) was -4.3% and the “Amount of dimeric form of H6R-Aβ16 upon addition of HAEE” value (H6R-Aβ16) was “decrease in the amount of dimeric H6R-Aβ16; also recorded: disappearance of the dimeric form; also recorded: shifts the equilibrium between monomeric and dimeric Aβ towards its monomeric form”. The “Effect of HAEE itself on lifespan” value (C. elegans CL2120 [2]; CL2120, HAEE 4 mM) was “no effect”, the Mean survival (C. elegans CL2120 [2]; CL2120, NGM (no Zn), 25°C, mean ± SD of 3 experiments) was 8.83 ± 0.31 days and the 50% survival (C. elegans CL2120 [2]; [7]) was 8.5 days. The 50% survival (C. elegans CL2120 [2]; [8]) was 8.9 days, the 50% survival (C. elegans CL2120 [2]; [9]) was 9.1 days and the “Mean increase/decrease in lifespan” value (C. elegans CL2120 [2]; CL2120, NGM (no Zn), vs control NGM, mean ± SD of 3 experiments) was 1.53±0.63%. It also gave an Increase/decrease in lifespan (C. elegans CL2120 [2]; [7]) of 1.19%, an Increase/decrease in lifespan (C. elegans CL2120 [2]; [8]) of 1.14% and an Increase/decrease in lifespan (C. elegans CL2120 [2]; [9]) of 2.25%. For the same compound, the “Effect on lifespan” value (C. elegans CL2120 [2]; CL2120, NGM, without Zn2+, 25°C) was “do not affect”, the Mean survival (C. elegans CL2120 [2]; CL2120, NGMZn (ZnSO4 20 μM), 25°C, mean ± SD of 3 (isoD7-Aβ42: 5) experiments) was 9.2 ± 0.7 days and the “Effect of HAEE on lifespan shortened by isoD7-Aβ42 + Zn2+” value (C. elegans CL2120 [2]; CL2120, NGMZn, HAEE 4 mM + isoD7-Aβ42 40 μM) was “removes the negative effect; also recorded: completely restored the shortened lifespan”. The 50% survival (C. elegans CL2120 [2]; CL2120, NGMZn, replicate 1) was 9.3 days, the 50% survival (C. elegans CL2120 [2]; CL2120, NGMZn, replicate 2) was 9 days and the 50% survival (C. elegans CL2120 [2]; CL2120, NGMZn, replicate 3) was 9.3 days. For the same compound, the “Mean increase/decrease in lifespan” value (C. elegans CL2120 [2]; CL2120, NGMZn, vs control NGMZn, mean ± SD of 3 (isoD7-Aβ42: 5) experiments) was 1.85 ±0.66%, the Increase/decrease in lifespan (C. elegans CL2120 [2]; CL2120, NGMZn, replicate 1) was 1.09% and the Increase/decrease in lifespan (C. elegans CL2120 [2]; CL2120, NGMZn, replicate 2) was 2.27%. The Increase/decrease in lifespan (C. elegans CL2120 [2]; CL2120, NGMZn, replicate 3) was 2.20% and the “Amyloid accumulation in animal models of AD” value (transgenic mice) was “hamper amyloid accumulation”.
